{
  "source": "patent EP3685668B1",
  "about": "“COMPOSITION COMPRISING ACIBENZOLAR-S-METHYL AS EFFECTIVE INGREDIENT FOR CONTROLLING BURSAPHELENCHUS XYLOPHILUS DISEASE AND METHOD FOR CONTROLLING BURSAPHELENCHUS XYLOPHILUS USING SAME” (Industry Foundation of Chonnam National University, priority 2017, dated 2019)",
  "key": {"[1]": {"tested_on": "Bursaphelenchus xylophilus", "assay": "Occurrence of pine wilt disease after trunk injection of induced resistance candidate materials, in vivo test in young red pine trees", "conditions": "red pine tree (Pinus densiflora), 30 days after inoculation; for Occurrence rate of pine wilt disease: Number of pine trees showing wilt symptoms / Number of pine trees used for the test: trunk injection 100 µℓ per tree; for Number of pine trees showing wilt symptoms only at growing points of a stem: trunk injection", "experimental": "By using the 15 types of an induced resistance elicitors which have been known to induce the plant resistance against various diseases as candidates, their controlling effect against pine wilt disease was examined. The control efficacy of candidates against pine wilt disease was analyzed according to an in vivo test using red pine tree (Pinus densiflora) which was 2-year old young pine trees (diameter of 5.5 mm or so, and height of about 35 mm).\nAs a candidate group of an induced resistance material, two kinds of acibenzolar-S-methyl (ASM), TDL (Tiadinil), ITL (Isotianil), PBZ (Probenzole), AZO (Azoxystrobin), VMA (Validamycin A), MeJA (Methyl jasmonate), BABA (DL-3-aminobutyric acid), 2,3-BDO (2,3-Butanediol), SA (salicyclic acid), GABA (r-Aminobutyric acid), glucan (Glucan), ER (Ergosterol), and AZA (Azelaic acid) were used. Only the use of acibenzolar-S-methyl is according to the invention. Injection of the chemicals was carried out by trunk injection method, i.e., at an angle of 45°, a borehole was created by using an electric drill with thickness of 1.5 mm on a pine stem part that is 5 to 10 cm above the soil surface, a tip (200 µℓ) was inserted to the hole, and, after dissolving the candidate material at concentration level of 200, 20, or 2 µg/mℓ in each solvent, the solution was injected in an amount of 100 µℓ per pine tree. After the injection of the chemical agent, the end part of the tip was sealed with parafilm.\nThe pine tree wilt nematodes (Bursaphelenchus xylophilus, National Institute of Forest Science (NIFoS), South Korea) was incubated at 25°C by feeding them with Botrytis cinerea, which have been cultured on a potato dextrose agar (PDA) medium, and after one week incubation, they were collected by Baermann funnel method and were adjusted to the level of 20,000 worms/mℓ by examining the number of the worms under an optical microscope. One week after the chemical treatment, the inoculation of the pine tree wilt nematodes was carried out by tree barking inoculation of 100 µℓ, i.e., 2,000 worms, per tree, and the result was determined 30 days after the inoculation. […] [Table 1] Occurrence rate of pine wilt disease in candidate group of induced resistance materials"}, "PR_2 family": {"tested_on": "PR_2 family", "assay": "qRT-PCR expression of induced resistance gene in pine tree callus", "assay_type": "cell-based", "conditions": "for Expression of induced resistance gene, PR_2 family: 24 hours", "experimental": "(§1) For in vitro analysis of induced resistance, the expression of PR genes and other plant defense-related genes was determined, which are evolved in various defense mechanisms including induced resistance. The primers of sixteen induced resistance-related genes of pine tree used in this invention were listed in the below and elongation factor_1 alpha were used as a reference gene. [Table 4] The primer list of defense resistance-related genes\n(§2) After the treatment with 200 µg / mℓ of candidates of the selected induced resistance material, expression of the induced resistance-related gene in pine callus was determined by qRT-PCR using the primer pairs of defense resistance-related genes in Table 4. As a candidate group of an induced resistance material in pine tree, acibenzolar-S-methyl (ASM), TDL (Tiadinil), ITL (Isotianil), PBZ (Probenzole), AZO (Azoxystrobin), VMA (Validamycin A), MeJA (Methyl jasmonate), BABA (DL-3-aminobutyric acid), 2,3-BDO (2,3-Butanediol), GABA (r-Aminobutyric acid), glucan (Glucan), ER (Ergosterol), and AZA (Azelaic acid) were used. For the in vitro analysis of the expression of induced resistance gene in pine callus, the selected induced resistance materials were applied with 500 µℓ of LM liquid medium on a surface of pine tree callus (100 mg) in 12-well microplate to give final concentration of 200 µg/mℓ. Then, the callus surface was sufficiently reacted for 24 hours with the candidate of pine tree induced resistance material by shaking at 50 rpm in a 25 °C shaking incubator under dark condition. RNAs were extracted from the callus after completion of the reaction with an induced resistance material, followed by synthesis of cDNAs. Then, by carrying out qRT-PCR, the expression of induced resistance genes was determined. [Table 5] Expression of induced resistance gene in pine tree callus by TDL, PBZ, ASM, ITL, AZO, VMA, glucan, and AZA\n(§3) Based on the results of assay using young plants and gene expression by selected induce resistance materials, it seemed that acibenzolar-S-methyl had the most excellent effect. Thus, the following tests were carried out using acibenzolar-S-methyl only. Expression of the induced resistance genes at different culture time after the chemical treatment was examined. For the in vitro assay, LM medium containing pine tree callus was treated with acibenzolar-S-methyl at concentration of 200 µg / mℓ, followed by reaction for 1 day, 7 days, or 14 days in a 25°C shaking incubator under dark condition. RNAs were extracted from the callus after the reaction followed by synthesis of cDNAs. Then, by carrying out qRT-PCR, the expression of the induced resistance genes was determined. Depending on reaction time after the treatment, i.e., after 1 day, 7 days, or 14 days, the expression of the obtained induced resistance genes was examined. As a result of the in vitro callus assay depending on reaction time after the treatment with acibenzolar-S-methyl, the expression of the induced resistance-related genes is the highest at 1 day after the treatment with acibenzolar-S-methyl and gradually diminished over time, as it is shown in Table 7. In this regard, it is contemplated that the expression of genes acquired by acibenzolar-S-methyl is not maintained in highly expressed state until the pathogen invasion and just memorized with at minimum level so that the energy consumption by plant can be efficiently managed. [Table 7] Expression of induced resistance gene in pine tree callus by acibenzolar-S-methyl depending on reaction time\n(§4) To have an in vitro assay according to different methods of treatment with acibenzolar-S-methyl, two separate treatment methods, i.e., surface treatment (spraying treatment) of pine tree callus and direct application of the induced resistance material to an LM medium containing pine tree callus, were performed. […]"}, "PR_3 family class 1": {"tested_on": "PR_3 family class 1", "assay": "qRT-PCR expression of induced resistance gene in pine tree callus", "assay_type": "cell-based", "conditions": "for Expression of induced resistance gene, PR_3 family class 1: 24 hours", "experimental": "as §1, §2, §3, §4"}, "PR_9 family": {"tested_on": "PR_9 family", "assay": "qRT-PCR expression of induced resistance gene in pine tree callus", "assay_type": "cell-based", "conditions": "for Expression of induced resistance gene, PR_9 family: 24 hours", "experimental": "as §1, §2, §3, §4"}, "Xyloglucan": {"tested_on": "Xyloglucan", "assay": "qRT-PCR expression of induced resistance gene in pine tree callus", "assay_type": "cell-based", "conditions": "200 µg/mℓ; for Expression of induced resistance gene, Xyloglucan: 24 hours", "experimental": "as §1, §2, §3, §4"}, "PR_4 family": {"tested_on": "PR_4 family", "assay": "qRT-PCR expression of induced resistance gene in pine tree callus", "assay_type": "cell-based", "conditions": "for Expression of induced resistance gene, PR_4 family: 24 hours", "experimental": "as §1, §2, §3, §4"}, "[2]": {"conditions": "200 µg/mℓ, Direct supplying as a medium component"}, "[3]": {"conditions": "concentration series, 200 µg/mℓ"}},
  "data": [
    {"smiles": "CSC(=O)c1cccc2nnsc12", "note": "[ASM, acibenzolar-S-methyl]", "values": [
      {"measurement": "Occurrence rate of pine wilt disease: Number of pine trees showing wilt symptoms / Number of pine trees used for the test", "setting": "[1]; 2 µg/mℓ", "value": "1/3"},
      {"measurement": "Occurrence rate of pine wilt disease: Number of pine trees showing wilt symptoms / Number of pine trees used for the test", "setting": "[1]; 20 µg/mℓ", "value": "1/3"},
      {"measurement": "Occurrence rate of pine wilt disease: Number of pine trees showing wilt symptoms / Number of pine trees used for the test", "setting": "[1]; 200 µg/mℓ", "value": "0/3"},
      {"measurement": "Number of pine trees showing wilt symptoms only at growing points of a stem", "setting": "[1]; 2 µg/mℓ", "value": 1},
      {"measurement": "Number of pine trees showing wilt symptoms only at growing points of a stem", "setting": "[1]; 20 µg/mℓ", "value": 1},
      {"measurement": "Expression of induced resistance gene, PR_2 family", "setting": "PR_2 family; 200 µg/mℓ", "value": 1.65},
      {"measurement": "Expression of induced resistance gene, PR_2 family", "setting": "PR_2 family; [2]", "value": 5.5},
      {"measurement": "Expression of induced resistance gene, PR_2 family", "setting": "PR_2 family; 200 µg/mℓ, Spraying", "value": 1.65},
      {"measurement": "Gene expression level, PR_2 family", "setting": "PR_2 family; 200 µg/mℓ, After 1 day", "value": 5.5},
      {"measurement": "Gene expression level, PR_2 family", "setting": "PR_2 family; 200 µg/mℓ, After 7 days", "value": 0.97},
      {"measurement": "Gene expression level, PR_2 family", "setting": "PR_2 family; 200 µg/mℓ, After 14 days", "value": 0.42},
      {"measurement": "Gene expression level, PR_2 family", "setting": "PR_2 family; concentration series, 20 µg/mℓ", "value": 2.694},
      {"measurement": "Gene expression level, PR_2 family", "setting": "PR_2 family; [3]", "value": 1.117},
      {"measurement": "Expression of induced resistance gene, PR_3 family class 1", "setting": "PR_3 family class 1; 200 µg/mℓ", "value": 2.04},
      {"measurement": "Expression of induced resistance gene, PR_3 family class 1", "setting": "PR_3 family class 1; [2]", "value": 2.85},
      {"measurement": "Expression of induced resistance gene, PR_3 family class 1", "setting": "PR_3 family class 1; 200 µg/mℓ, Spraying", "value": 2.04},
      {"measurement": "Gene expression level, PR_3 family class 1", "setting": "PR_3 family class 1; 200 µg/mℓ, After 1 day", "value": 2.85},
      {"measurement": "Gene expression level, PR_3 family class 1", "setting": "PR_3 family class 1; 200 µg/mℓ, After 7 days", "value": 1.38},
      {"measurement": "Gene expression level, PR_3 family class 1", "setting": "PR_3 family class 1; 200 µg/mℓ, After 14 days", "value": 0.29},
      {"measurement": "Gene expression level, PR_3 family class 1", "setting": "PR_3 family class 1; concentration series, 20 µg/mℓ", "value": 3.506},
      {"measurement": "Gene expression level, PR_3 family class 1", "setting": "PR_3 family class 1; [3]", "value": 3.605},
      {"measurement": "Expression of induced resistance gene, PR_9 family", "setting": "PR_9 family; 200 µg/mℓ", "value": 2},
      {"measurement": "Expression of induced resistance gene, PR_9 family", "setting": "PR_9 family; [2]", "value": 8.57},
      {"measurement": "Expression of induced resistance gene, PR_9 family", "setting": "PR_9 family; 200 µg/mℓ, Spraying", "value": 2},
      {"measurement": "Gene expression level, PR_9 family", "setting": "PR_9 family; 200 µg/mℓ, After 1 day", "value": 1},
      {"measurement": "Gene expression level, PR_9 family", "setting": "PR_9 family; 200 µg/mℓ, After 7 days", "value": 1},
      {"measurement": "Gene expression level, PR_9 family", "setting": "PR_9 family; 200 µg/mℓ, After 14 days", "value": 1},
      {"measurement": "Gene expression level, PR_9 family", "setting": "PR_9 family; concentration series, 2 µg/mℓ", "value": 0.7526},
      {"measurement": "Gene expression level, PR_9 family", "setting": "PR_9 family; concentration series, 20 µg/mℓ", "value": 0.79},
      {"measurement": "Gene expression level, PR_9 family", "setting": "PR_9 family; [3]", "value": 0.9526},
      {"measurement": "Expression of induced resistance gene, Xyloglucan", "setting": "Xyloglucan", "value": 2.36},
      {"measurement": "Expression of induced resistance gene, Xyloglucan", "setting": "Xyloglucan; Direct supplying as a medium component", "value": 17.51},
      {"measurement": "Expression of induced resistance gene, Xyloglucan", "setting": "Xyloglucan; Spraying", "value": 2.36},
      {"measurement": "Gene expression level, Xyloglucan", "setting": "Xyloglucan; After 1 day", "value": 29.86},
      {"measurement": "Gene expression level, Xyloglucan", "setting": "Xyloglucan; After 7 days", "value": 2.81},
      {"measurement": "Gene expression level, Xyloglucan", "setting": "Xyloglucan; After 14 days", "value": 1.06},
      {"measurement": "Gene expression level, Xyloglucan", "setting": "Xyloglucan; concentration series", "value": 37.01},
      {"measurement": "Expression of induced resistance gene, PR_4 family", "setting": "PR_4 family; 200 µg/mℓ", "value": 2.6},
      {"measurement": "Expression of induced resistance gene, PR_4 family", "setting": "PR_4 family; [2]", "value": 5.46},
      {"measurement": "Expression of induced resistance gene, PR_4 family", "setting": "PR_4 family; 200 µg/mℓ, Spraying", "value": 2.6},
      {"measurement": "Gene expression level, PR_4 family", "setting": "PR_4 family; 200 µg/mℓ, After 1 day", "value": 5.46},
      {"measurement": "Gene expression level, PR_4 family", "setting": "PR_4 family; 200 µg/mℓ, After 7 days", "value": 0.74},
      {"measurement": "Gene expression level, PR_4 family", "setting": "PR_4 family; 200 µg/mℓ, After 14 days", "value": 0.2},
      {"measurement": "Gene expression level, PR_4 family", "setting": "PR_4 family; concentration series, 2 µg/mℓ", "value": 2.25}
    ]}
  ]
}
